Test results as given in BindingDB's records for doi:10.1016/j.chembiol.2007.05.004 (University of Tokyo, 2007).

The compounds below were run against T1, Cytochrome P450 1B1 (Homo sapiens, UniProt Q16678) (assay: EROD Assay). Conditions: pH 8; 37 °C.
T1 sequence (Q16678 whole entry): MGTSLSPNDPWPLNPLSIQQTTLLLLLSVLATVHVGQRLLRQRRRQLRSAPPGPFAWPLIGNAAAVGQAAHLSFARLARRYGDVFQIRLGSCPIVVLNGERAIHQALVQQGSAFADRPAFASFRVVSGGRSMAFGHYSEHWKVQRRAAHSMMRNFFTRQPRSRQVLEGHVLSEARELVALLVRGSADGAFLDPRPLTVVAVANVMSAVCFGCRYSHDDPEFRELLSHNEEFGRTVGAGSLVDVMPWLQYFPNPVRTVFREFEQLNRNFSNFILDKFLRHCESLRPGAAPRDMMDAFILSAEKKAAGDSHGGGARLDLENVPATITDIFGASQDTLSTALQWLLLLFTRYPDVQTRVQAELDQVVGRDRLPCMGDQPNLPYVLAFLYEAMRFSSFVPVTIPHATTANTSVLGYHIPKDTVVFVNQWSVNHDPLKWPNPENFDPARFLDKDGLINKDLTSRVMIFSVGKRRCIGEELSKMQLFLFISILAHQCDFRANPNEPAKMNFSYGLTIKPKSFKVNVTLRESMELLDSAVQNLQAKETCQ
From the text: The ethoxyresorufin-O-deethylase (EROD) assay is used to test the activity of CYP1B1.

Ki [nM]	Structure (SMILES)
177	Oc1ccc(/C=C/c2cc(O)cc(O)c2)cc1 [5-[(E)-2-(4-hydroxyphenyl)ethenyl]benzene-1,3-diol]
74.3	Oc1cc(O)cc(/C=C/c2ccccc2)c1 [(E)-5-(2-phenylethenyl)-1,3-benzenediol]
323	Oc1cc(O)cc(/C=C/c2ccc(F)cc2)c1 [Stilbene, 8f]
1110	Oc1cc(O)cc(/C=C/c2ccoc2)c1 [Stilbene, 15f]
1180	Oc1cc(O)cc(/C=C/c2ccsc2)c1 [Stilbene, 16f]
